Consider 2 compounds from US8426606B2, “2′,2-bisthiazole non-nucleoside compounds, preparation methods, pharmaceutical compositions and uses as hepatitis virus inhibitors thereof” (Shanghai Institute of Materia Medica, Chinese Academy of …, priority 2010, dated 2013).

One data set deals with HBV. Description: Anti-HBV activity assay: HBV-DNA replication in HepG2.2.15 cells, fluorescent quantitation PCR of culture supernatant. Type of data set: cell-based, Hepatitis B Virus. To be noted: for IC50: HBV-DNA in supernatant on the eighth day, read-out: IC50 (concentration at which 50% of the replication of HBV was inhibited). The method, then:
(§1) The anti-HBV activity assay of a specimen compound was performed in HepG2.2.15 cells stably transformed with the whole genome of HBV, including the determination of the cytotoxicity of the specimen compound (CC50) and the effect of the specimen compound on the replication level of HBV-DNA (IC50).
(§2) The Human hepatoma carcinoma cell HepG2.2.15 cell line stably transformed with the whole genome of HBV can stably secrete hepatitis B virosomes (containing DNA) in the supernatant of culture during culture. Both the antiviral activity and the cytotoxicity of the specimen drugs may be determined by detecting the amount of virus DNA secreted into the supernatant of culture by the cells under the intervention of an antiviral drug, in reference to the amount in control group that is the absence of the antiviral drug. A real-time fluorescent quantitation PCR assay was adopted to determine the concentration of a specimen drug at which 50% of the replication of HBV-DNA was inhibited (IC50), and a MTT assay was adopted to determine the concentration of a specimen drug at which 50% cytotoxicity occurs (CC50).
The specimen drug was prepared into a solution having a concentration (400 μM) desired for the experiment before use. Six diluted concentrations were tested for each specimen drug. The clinical anti-hepatitis B virus drug Lamivudine was used as the positive control in experiment so as to determine whether the reaction is normal or not in each experiment.
(§3) HepG2.2.15 cells were inoculated on a 96-well plate at 5×10^5 cells/ml. On the second day, the specimen drug was added. After the culture medium and the specimen drug having the same concentration as above were replaced periodically, on the eighth day, the supernatant of culture was collected to be tested. To the cells on the 96-well plate, MTT (5 mg/ml) is added. 4 hours later, MTT lysis solution was added (100 μl/well). The next day, OD570 was read on a microplate reader. The cytotoxicity of the specimen drug on HepG2.2.15 cells, the influence of specimen drug on cell growth, and the concentration of specimen drug at which 50% of cells were killed (CC50) were calculated in accordance with the OD value.
A proper amount of the supernatant of culture was added into an isovolumic virus extract and mixed uniformly. The resulted mixture was boiled, and then centrifuged for 5 minutes at 10,000 rpm at room temperature. A proper amount of the obtained supernatant was used to perform PCR amplification, and meanwhile four standard samples of HBV-DNA were set up to make a standard curve. The inhibition of each specimen drug at various concentrations against the replication of HBV-DNA was calculated according to the detected replication value of the viral DNA, and then the half inhibition of the specimen drug was calculated to obtain its IC50.

Data set [1] can be described thus: Cytotoxicity on HepG2.2.15 cells (MTT assay). Type of data set: cell-based, Human. The note with it: human, read-out: CC50 (concentration at which 50% of cells was killed). The method, then: as §1, §2, §3
In a further data set the test system is HCV (J399E). Description: microbe, parasite or virus in culture. Type of data set: cell-based, Hepatitis C Virus. The method, then:
The variation of the green fluorescence intensity was recorded on a microplate reader and cytotoxicity was measured at the same time, so as to evaluate the influence of the compound on the replication activity of HCV.
Compounds to be tested were dissolved in DMSO to prepare a stock solution before the test. Upon using, the stock solution was diluted to a desired concentration with DMEM (Dulbecco's Modified Eagle Media, purchased from GibcoBRL company (Life Technologies, Grand Island, N.Y., USA)) containing 10% FBS (fetal bovine serum, purchased from Hyclone company (Logan, Utah, USA)).
Positive control: ribavirin (purchased from Sigma/Aldrich). It was dissolved in DMSO to prepare a stock solution and stored at −20° C. before use, and diluted to a desired concentration upon using.
(§4) Huh7.5.1 cells (10% FBS, DMEM) at the concentration of 10^5 cells/ml were inoculated on a 96-well plate (Costar 3904) with 100 μl per well. 24 hours later, the supernatant of culture was sucked out, and 50 μl of virus supernatant with MOI=0.1 was added. 8 hours later, 50 μl of the testing drug was added and 100 μl of culture medium was supplemented. After incubation for 72 hours, the supernatant was sucked out, and read on a fluorescent microplate reader (Ex=488 nm, Em=516 nm). Then each well was added with 20 μl of MTT (5 mg/ml) and additional 50 μl of culture medium. 4 hours later, 100 μl of MTT lysis solution was added. 6 hours later, reading was performed at a wavelength of 570 nm.

A short description of another data set: in vitro. Type of data set: cell-based. The note with it: human. Here is the method: The anti-HCV activity assay was performed by using Huh7.5.1 cells (donated by WUHAN INSTITUTE of VIROLOGY, CHINESE ACADEMY OF SCIENCES) infected by HCV (J399E) inserted with enhanced green fluorescent protein (EGFP). The variation of the green fluorescence intensity was recorded on a microplate reader and cytotoxicity was measured at the same time, so as to evaluate the influence of the compound on the replication activity of HCV.
as §4

Data set [2] can be described thus: In vivo pharmacokinetic studies in rats (intragastric and intravenous). On the set-up: species or system SD rats. The note with it: rat. The method, then:
(§5) Intragastric Administration Three healthy male SD rats having body weights of 200 g to 250 g were administered with a specimen drug with a dosage of 20 mg/kg and a volume of 10 ml/kg. The rats were fasted for 12 hours before administration and had the freedom to drink water. The venous blood with a volume of 0.3 ml was obtained from the retrobulbar venous plexus of the rats at 0.25 h, 0.5 h, 1.0 h, 2.0 h, 3.0 h, 4.0 h, 5.0 h, 7.0 h, 9.0 h and 24 h after the administration, put in a heparinized tube, and centrifuged for 10 minutes at 3500 rpm to separate the plasma, which was stored at −20° C. to be tested.
as §5, with “Intravenous Injection: Three healthy” for “Intragastric Administration Three healthy”, “dosage of 10 mg/kg and” for “dosage of 20 mg/kg and”, “volume of 5.0 ml/kg. The” for “volume of 10 ml/kg. The”, “rats at 5 min, 15 min, 0.5 h,” for “rats at 0.25 h, 0.5 h,”, “heparinized tube, centrifuged for” for “heparinized tube, and centrifuged for”

For a further data set, the system named is HepG2.2.15 cells. The experiment in a line: Cytotoxicity on HepG2.2.15 cells (MTT assay). The note with it: read-out: CC50 (concentration at which 50% of cells was killed). The class given is cell-based, Human. The method, then: as §1, §2, §3

Structures are written as SMILES. Where two headings read alike, the source gives them in different places.

For `CC(C)(O)Cc1sc(-c2nccs2)nc1C(=O)NCc1ccc(F)cc1` [Compound 391-2, N-(p-fluorobenzyl)-5-(2-hydroxy-2-methylpropyl)-2′,2-bisthiazole-4-formamide], the IC50 in the data set with HBV (Hepatitis B virus) came out at 5.4 µM; with HCV (J399E) (Hepatitis C virus, Huh-7.5.1, 72 h, read-out: IC50 (concentration at which 50% of the replication of HCV was inhibited)), 21.3 µM. Moreover, the “SI (bioactivity selective index)” value in the data set with HBV (anti-HBV) is more than 18.5; in the data set on HCV (J399E) (anti-HCV, Huh7.5.1 cells) it was 6.3. Further, the CC50 at 6 days in data set [1] was more than 100 µM. Further, in the data set “in vitro”, the CC50 at 72 h is 134 µM. In addition, in data set [2] (plasma, po, male SD rats, 20 mg/kg intragastric, dosage normalized, calculated according to AUC0-t), the bioavailability was 76.5%.
For the compound `CC(C)Cc1sc(-c2nccs2)nc1C(=O)NCc1ccc(F)cc1` [Compound W28F, N-parafluorobenzyl-5-isobutyl-2′,2-bithiazole-4-formamide, reference compound], the IC50 in the data set on HBV was found to be 2.6 µM. Also, in the data set on HepG2.2.15 cells, the CC50 was more than 33.3 µM. This compound returned an average oral bioavailability in data set [2] (in vivo, 10 mg/kg) of 2.80%.
